“And” between values parts separate entries of the source, which are not always exact repeats. Identical values can stand only once.
Experiments:
PC12 cells [1] = test: Optical recording of pHi (DCFDA) in PC12 cells before/after UV flash photolysis of NBA; assay type: cell-based, Rat
Method: Calibrating and Measuring pH with DCFDA. For ratiometric pH, measurements, PC12 cells were loaded with the pH-sensitive dye Carboxy-DCFDA (10 μM in rat aCSF). Nigericin was titrated to a pH of 2.0, 4.0, 5.0, 6.0, 7.0 or 8.0. The emitted fluorescence of DCFDA was recorded from cells at each of the titrated pH solutions. […] Each ratio from individual cells (n=421) was recorded for each pH. A curve of best fit was created (R^2=93.02) and used for the conversion of fluorescence to pHi.
Optic Recording of pHi PC12. DCFDA stock solution was diluted to a concentration of 10 μM in a 3 mL rat aCSF solution. PC12 cells were flashed every 30 second at 495/440 nm for a duration of 900/700 ms, respectively, at 40× magnification and 2 seconds at each wavelength under the 10× magnification. Cells were washed three times with rat aCSF after 10 minutes and prior to recording fluorescence to monitor steady state.
NBA Loading for Focal Acidification of PC12. Seventy-five μL of NBA stock solution was mixed in 3 mL of rat aCSF and bath applied to PC12 cells for 10 minutes. After bath application, cells were washed a minimum of three times with rat aCSF. PC12 cells were exposed to UV light using various flash paradigms. After each exposure, pH was monitored for 2 minutes to quantify pH, acidification.
In our experiments PC12 cells were loaded with the ratiometric fluorescent dye DCFDA. DCFDA was utilized for measuring changes in the intracellular pH (pHi) of a cell over a broad pH range from 2.0 to 7.0 (FIG. 3A, 3B). In this embodiment of the invention, NBA (1 mM) was bath applied at room temperature to PC12 cells and allowed to passively diffuse across the cell membrane. Emitted fluorescence ratios were taken prior to photoactivation of NBA with a flash photolysis paradigm (FIG. 15). Emitted fluorescence ratios were also recorded after NBA was exposed to a wavelength of 350 nm UV light. Using fluorescence microscopy, we can optically record and quantify changes in pHi.

MCF-7 cells [2] = test: Optical recording of pHi (DCFDA) in MCF-7 cells before/after UV flash photolysis of NBA; assay type: cell-based, human
Method: (§1) Optical Recording of pH, MCF-7. DCFDA stock solution was diluted to a concentration of 10 μM in a 3 mL rat aCSF solution. MCF-7 cells were flashed every 30 seconds at 495/440 nm for a duration of 900/700 ms, respectively, at 40× magnification and 2 seconds at each wavelength under the 10× magnification. […] Optical recording of pHi was monitored for a minimum of 10 minutes to represent a steady state.
(§2) NBA Load for Focal Acidification of MCF-7. Seventy-five μL of NBA stock solution was mixed in 3 mL of rat aCSF and bath applied to MCF-7 cells for 10 minutes. After bath application, cells were washed a minimum of three times with rat aCSF. MCF-7 cells were exposed to 60-30-60 UV light paradigm. After each exposure, pH was monitored for 2 minutes to quantify pHi acidification.

MDA-MB-231 cells [3] = test: Optical recording of pHi (DCFDA) in MDA-MB-231 cells before/after UV flash photolysis of NBA; assay type: cell-based, human
Method: as §1, with “pHi MDA-MB-231.” for “pH, MCF-7.”, “MBA-MD-231” for “MCF-7”
as §2, with “MDA-MB231.” for “MCF-7.”, “MDA-MB-231” for “MCF-7”, “pH,” for “pHi”

PC12 cells [4] = test: Cell death quantification PC12 (Annexin V Alexa Fluor 568); assay type: cell-based, Rat
Method: Apoptosis Indicator. The apoptosis indicator Annexin V Alexa Fluor 568 was stored in a solution containing 25 mM HEPES, 140 mM NaCl, 1 mM EDTA, pH 7.4, plus 0.1% bovine serum albumin (BSA). A 10 μL of stock Annexin V Alexa Fluor 568 was diluted in 2 mL of binding buffer. The binding buffer consisted of: 10 mM HEPES, 140 mM NaCl, and 2.5 mM CaCl2, at a pH of 7.4.
(§3) Cell Death Quantification PC12. One hour after the UV flash paradigm to induce intracellular acidosis, the cells were lightly washed and the media was replaced with the phosphatidylserine indicator Annexin V Alexa Fluor 568. This solution was made using 10 μL of the stock solution and diluted in 2 ml of rat aCSF. Fifteen minutes was allowed for membrane binding, then fluorescence was monitored for the next hour or until all cells were expressing apoptosis.
Control Experiments. Controls in each experiment were performed by moving 10 mm or more away from the UV or 980 nm exposed region. Recordings of pHi were performed to detect if NBA or the nanoparticle affected the cell or inadvertently uncaged hydrogens in the periphery of the plate. Detection of apoptosis and/or blebs was performed using Annexin V Alexa Fluor 568 and DCFDA optical recording. Control experiments were performed in the following conditions: UV alone, time alone, and NBA alone. Each one of the control experiments was performed for a minimum of 3 hours.

MCF-7 cells [5] = test: Cell death quantification MCF-7 (blebbing and/or Annexin V); assay type: cell-based, human
Method: Apoptosis Indicator. The apoptosis indicator Annexin V Alexa Fluor 568 was stored in a solution containing 25 mM HEPES, 140 mM NaCl, 1 mM EDTA, pH 7.4, plus 0.1% bovine serum albumin (BSA). A 10 μL of stock Annexin V Alexa Fluor 568 was diluted in 2 mL of binding buffer. The binding buffer consisted of: 10 mM HEPES, 140 mM NaCl, and 2.5 mM CaCl2, at a pH of 7.4. Cell Death Quantification MCF-7. After UV flash paradigm, the presences of blebs were observed and recordings of the pH in the intrablebular inflationary space (pHb) were acquired using the DCFDA fluorescence as they expanded. […] We quantified blebs as cellular death based on previously published findings which described blebbing as an irreversible death process (Andrade et al., Biology of the Cell, 2010, 102(1):25-35). Control Experiments. Controls in each experiment were performed by moving 10 mm or more away from the UV or 980 nm exposed region. Recordings of pHi were performed to detect if NBA or the nanoparticle affected the cell or inadvertently uncaged hydrogens in the periphery of the plate. Detection of apoptosis and/or blebs was performed using Annexin V Alexa Fluor 568 and DCFDA optical recording. Control experiments were performed in the following conditions: UV alone, time alone, and NBA alone. Each one of the control experiments was performed for a minimum of 3 hours.

MDA-MB-231 cells [6] = test: Cell death quantification MDA-MB-231 (blebbing and/or Annexin V); assay type: cell-based, human; conditions: in less than three hours following NBA flash photolysis
Method: as §3, with “MDA-MB-231.” for “PC12.”, “apoptosis. As with MCF-7 cells, we quantified blebs as cellular death based on previously published findings which described blebbing as an irreversible death process (Andrade et al., Biology of the Cell, 2010, 102(1):25-35).” for “apoptosis.”

MDA-MB-231 tumors [7] = test: Tumor growth of MDA-MB-231-GFP tumors in nude mice after one-time NBA phototherapy; assay type: in vivo; conditions: one-time 0.1 ml 1 mM NBA into tumor + 405 nm 60-30-60 illumination, P<0.05
Method: We injected the aggressive triple negative breast cancer MDA-MB-231-GFP (2×10^6 cells) into the mammary fat pad of 5 week old female nude mice. Tumors appeared after approximately one week following injection. Treatment was initiated once the tumors reached and maintained a length of 5 mm for two consecutive days. The mice received a one-time treatment of either a control injection if 0.1 ml of aCSF to the tumor or 0.1 ml of NBA (1 mM) followed by photoactivation. The NBA/photoactivation treatment was conducted as follows: one hour after NBA injection, the animal was anesthetized (1.5-4% isoflurane) prior to the insertion of a 200 μm fiber optic cannula into the tumor mass. The interior of the tumor was illuminated with 405 nm light (80-85 mW) via a ceramic cannula using the same illumination paradigm which was effective in vitro, specifically 60 seconds of illumination, 60 seconds of no illumination, 30 seconds of illumination, 60 seconds of no illumination, and 60 seconds of illumination. This paradigm is referred to as a “60-30-60” illumination paradigm.
Tumors were measured daily in order to calculate changes in tumor volume using the formula: Tumor Volume(TV)=[…]
The percent change in tumor volume was calculated by normalizing the percent change to the tumor volume recorded on the day of treatment. […]

MDA-MB-231 tumors [8] = test: Survival of nude mice with MDA-MB-231 tumors after one-time NBA phototherapy; assay type: in vivo
Method: The described inventive technique is effective in increasing the duration of survival in animals with cancer in vivo. […] NBA was injected into the established triple negative breast cancer MDA-MB-231 tumors of 6 week old nude mice. One hour was permitted to allow adequate diffusion of the NBA into the intracellular space of the cancer cells. Following this one-hour diffusion period, the tumors were exposed to 405 nm photo-activating light (85 mW) for a 60-30-60 excitation paradigm (described previously).
Following their one-time treatment of either NBA with photo-activation or control aCSF, mice were monitored and euthanized in accordance with the Humane Endpoints approved by the University of Texas at San Antonio Institutional Animal Care and Use Committee (IACUC). The control aCSF treated mice (n=4) survived for an average of 16.5±1.66 days from the day of treatment, with survival days from treatment ranging from 14 to 19 days. In contrast, the one-time NBA treated mice survived for 35.2±5.70 days from the day of treatment (FIG. 22). The NBA treated mice survival ranged from 18 to 50 days from treatment.

rat ventricular myocytes = conditions: NBA 1 mM, absence of UV exposure; cited from earlier work
[9] = system: in vitro tadpole brainstem; conditions: 10 μM NBA, entire in vitro tadpole brainstem; cited from earlier work

## O=Cc1ccccc1[N+](=O)[O-] [NBA, 2-nitrobenzaldehyde]
PC12 cells [1]; PC12 cells (n=22), 60-30-60 UV flash paradigm, flash 1
  Average pHi drop, first flash: 0.72
PC12 cells [1]; PC12 cells (n=22), 60-30-60 UV flash paradigm, flash 2
  Average pHi drop, second flash: 0.36
PC12 cells [1]; PC12 cells (n=22), 60-30-60 UV flash paradigm, flash 3
  Average pHi drop, third flash: 0.36
PC12 cells [1]; PC12 cells, 1 mM NBA, 10 μM DCFDA, after NBA application and prior to photolysis
  Mean pHi before flash photolysis: 7.55±0.025 and 7.55
PC12 cells [1]; PC12 cells, 1 mM NBA, after 350 nm UV exposure
  Mean pHi after flash photolysis: 6.37±0.03 and 6.37
PC12 cells [1]; PC12 cells, 1 mM NBA, flash photolysis
  Mean change in pHi (Δ pHi): 1.18 pH units
MCF-7 cells [2]; MCF-7 cells (n=13), 60-30-60 UV flash paradigm, flash 1
  Average pHi drop, first flash: 0.68
MCF-7 cells [2]; MCF-7 cells (n=13), 60-30-60 UV flash paradigm, flash 2
  Average pHi drop, second flash: 0.35
MCF-7 cells [2]; MCF-7 cells (n=13), 60-30-60 UV flash paradigm, flash 3
  Average pHi drop, third flash: 0.59
MCF-7 cells [2]; MCF-7 cells, 1 mM NBA, 10 μM DCFDA, before 60-30-60 UV flash paradigm
  Mean pHi before flash photolysis: 7.38±0.13 and 7.38
MCF-7 cells [2]; MCF-7 cells, 1 mM NBA, after 60-30-60 UV flash paradigm
  Mean pHi after flash photolysis: 6.22±0.15 and 6.22
MDA-MB-231 cells [3]; MDA-MB-231 cells (n=38), loaded with NBA, before 60-30-60 UV flash
  Mean pHi before flash paradigm: 6.47±0.06
MDA-MB-231 cells [3]; MDA-MB-231 cells, NBA, 60-30-60 UV flash
  Mean Δ pHi: 3.68±0.18 pH units
MDA-MB-231 cells [3]; MDA-MB-231 cells, NBA, after 60-30-60 UV flash
  Mean pHi after flash paradigm: 2.78±0.23
PC12 cells [4]; NBA + UV flash photolysis
  Average apoptosis: 84.0±1.33%
PC12 cells [4]; NBA alone, no UV (n=47)
  Percentage of cells exhibiting apoptosis, NBA alone: 2.1%
MCF-7 cells [5]; MCF-7 cells exposed only to NBA, no UV
  Percentage of apoptosis, NBA only: 2.3%
MCF-7 cells [5]; MCF-7 cells incubated in NBA and exposed to UV, within 2 hours
  Percentage of death within 2 hours: above 90%
MCF-7 cells [5]; MCF-7 cells, 1 mM NBA + 60-30-60 UV flash
  Average apoptosis over time: 98.3±0.3%
MDA-MB-231 cells [6]
  Cell death: 55.3%
MDA-MB-231 tumors [7]
  Duration of significant reduction in tumor volume vs aCSF control: up to 13 days
MDA-MB-231 tumors [8]; one-time NBA + 405 nm (85 mW) 60-30-60 photo-activation, nude mice
  Mean survival from the day of treatment: 35.2 ± 5.70 days
MDA-MB-231 tumors [8]; one-time NBA photo-activation vs aCSF control, P=0.012
  Increase in survivability vs control aCSF: 113.3%
Rat ventricular myocytes
  Effect on diastolic Ca2+, cellular contraction, spatial pHi regulation: did not alter
[9]
  Effect on spontaneous fictive respiratory motor output and central respiratory chemoreceptor responses: no disruption
